ChEMBL document CHEMBL1201862, “PubChem BioAssay data set” (2004)
Activity calls are given as the source filed them.

Assays:
Cytochrome P450 3A4 = Cytochrome P450 3A4 (Homo sapiens, UniProt P08684); conditions: Potency;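 further: confirmatory qHTS run detecting inhibitors and substrates of CYP3A4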
[1] = growth suppression of beta-catenin-knockout colon cells, dose response, cell-based, HCT116, human colon tumor (AID 1045); type: functional;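 further: HCT116 colon tumor cells with beta catenin knocked out; cells exposed to compound for 60 hours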
[2] = growth suppression of PTEN-null colon cells, dose response, cell-based, HCT116 PTEN knockout (AID 1047); type: functional;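 further: HCT116 colon tumor cells with PTEN knocked out; cells exposed to compound for 60 hours before readout; potency for loss of cell viability measured by luminescence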
[3] = biological target: T1, Heat shock factor protein 1 (Mus musculus, UniProt P38532); experiment: HSF1 potentiators in luciferase reporter cells, confirmation, cell-based, NIH3T3, luminescence, dose retest (AID 435004); type: functional;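 further: stress induced by proteasome inhibitor MG132 added 30 min after compound; luciferase reporter driven by HSF1 response element in NIH3T3 cells; actives raise luminescence as potentiators of the MG132 stress response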
T1 sequence (P38532 whole entry): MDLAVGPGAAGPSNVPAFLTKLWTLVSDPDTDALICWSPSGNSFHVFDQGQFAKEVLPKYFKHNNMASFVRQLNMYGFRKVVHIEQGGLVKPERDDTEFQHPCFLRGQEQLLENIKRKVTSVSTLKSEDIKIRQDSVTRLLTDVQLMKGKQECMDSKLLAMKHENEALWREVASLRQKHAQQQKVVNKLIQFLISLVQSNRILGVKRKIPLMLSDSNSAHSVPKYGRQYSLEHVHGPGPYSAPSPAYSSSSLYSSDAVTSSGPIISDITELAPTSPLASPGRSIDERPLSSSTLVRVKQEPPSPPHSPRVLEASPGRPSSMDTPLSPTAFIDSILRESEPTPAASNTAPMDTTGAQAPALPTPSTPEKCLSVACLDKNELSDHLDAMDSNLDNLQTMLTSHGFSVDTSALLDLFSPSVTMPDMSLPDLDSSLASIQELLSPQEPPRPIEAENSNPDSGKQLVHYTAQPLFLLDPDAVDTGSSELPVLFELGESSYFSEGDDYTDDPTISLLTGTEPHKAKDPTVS

[4] = biological target: G-protein coupled receptor 55 (Homo sapiens, UniProt Q9Y2T6); experiment: GPR55 antagonists blocking LPI-driven arrestin recruitment, primary screen, imaging, U2OS, beta-arrestin-GFP, LPI agonist (AID 2013); type: functional;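 further: antagonist potency measured as reduced agonist-driven arrestin aggregation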
[5] = biological target: T2, Corticotropin-releasing factor receptor 2/Corticotropin-releasing factor-binding protein (Homo sapiens, UniProt P24387+Q13324); experiment: activators of CRF receptor 2 with binding protein – uHTS hits, confirmation (AID 602473); type: functional; conditions: read-out: EC50_Mean
T2 sequence (Q13324 whole entry): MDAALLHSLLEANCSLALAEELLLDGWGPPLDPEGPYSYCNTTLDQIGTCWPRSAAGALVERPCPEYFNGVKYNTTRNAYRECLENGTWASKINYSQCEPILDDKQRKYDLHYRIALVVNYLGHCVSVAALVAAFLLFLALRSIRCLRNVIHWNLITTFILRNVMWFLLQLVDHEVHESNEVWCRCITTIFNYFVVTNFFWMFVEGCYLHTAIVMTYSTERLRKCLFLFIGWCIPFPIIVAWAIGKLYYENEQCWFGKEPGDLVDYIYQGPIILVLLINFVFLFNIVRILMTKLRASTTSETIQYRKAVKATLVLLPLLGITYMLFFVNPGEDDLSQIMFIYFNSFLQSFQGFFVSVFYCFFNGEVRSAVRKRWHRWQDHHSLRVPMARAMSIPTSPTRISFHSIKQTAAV
T2 sequence (P24387 whole entry): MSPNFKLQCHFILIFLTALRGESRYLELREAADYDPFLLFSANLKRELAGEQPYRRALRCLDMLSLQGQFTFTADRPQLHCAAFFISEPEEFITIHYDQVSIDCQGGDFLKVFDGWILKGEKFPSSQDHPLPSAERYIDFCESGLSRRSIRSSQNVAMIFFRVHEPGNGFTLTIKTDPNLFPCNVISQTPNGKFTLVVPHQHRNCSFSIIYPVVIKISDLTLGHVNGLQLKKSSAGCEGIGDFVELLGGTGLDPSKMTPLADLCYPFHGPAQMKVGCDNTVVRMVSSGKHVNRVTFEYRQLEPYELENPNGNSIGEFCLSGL

[6] = biological target: T2, Corticotropin-releasing factor receptor 2/Corticotropin-releasing factor-binding protein; experiment: Dose Response confirmation of uHTS hits for small molecule antagonists of the CRF-binding protein and CRF-R2 receptor complex.; type: functional; conditions: read-out: IC50_Mean
cells [7] = type: functional, cell-based
H4 = experiment: Luminescence Cell-Based Dose Response HTS to Identify Activators of 5'UTR Stem-Loop Driven Prion Protein mRNA Translation in H4 Neuroglioblastoma Cells. [Related pubchem assays: 1829 (Project Summary), 1814 (Primary HTS)]; type: functional; conditions: Homo sapiens
cells [8] = type: functional, cell-based; remark: listed apart in the source
[9] = Luminescence Cell-Based Dose Confirmation HTS to Identify Activators of 5'UTR Stem-Loop Driven Alpha-Synuclein mRNA Translation in H4 Neuroglioblastoma Cells. [Related pubchem assays: 1829 (Project Summary), 1814 (Primary HTS)]; type: functional
[10] = Luminescence Cell-Based Dose Response HTS to Identify Activators of Luciferase Translation or Activity in H4 […] Cells. [Related pubchem assays: 1829 (Project Summary), 1814 (Primary HTS)]; type: functional
Streptokinase A = biological target: T3, Streptokinase A (Streptococcus pyogenes serotype M1, UniProt P10520); experiment: S. pyogenes streptokinase expression inhibitors, potency, dose response, plasminogen activation absorbance, OD405 (AID 1914); type: functional, Streptococcus pyogenes M1 GAS;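 further: secreted streptokinase activity via plasminogen activation per viability signal from cell pellet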
T3 sequence (P10520 whole entry): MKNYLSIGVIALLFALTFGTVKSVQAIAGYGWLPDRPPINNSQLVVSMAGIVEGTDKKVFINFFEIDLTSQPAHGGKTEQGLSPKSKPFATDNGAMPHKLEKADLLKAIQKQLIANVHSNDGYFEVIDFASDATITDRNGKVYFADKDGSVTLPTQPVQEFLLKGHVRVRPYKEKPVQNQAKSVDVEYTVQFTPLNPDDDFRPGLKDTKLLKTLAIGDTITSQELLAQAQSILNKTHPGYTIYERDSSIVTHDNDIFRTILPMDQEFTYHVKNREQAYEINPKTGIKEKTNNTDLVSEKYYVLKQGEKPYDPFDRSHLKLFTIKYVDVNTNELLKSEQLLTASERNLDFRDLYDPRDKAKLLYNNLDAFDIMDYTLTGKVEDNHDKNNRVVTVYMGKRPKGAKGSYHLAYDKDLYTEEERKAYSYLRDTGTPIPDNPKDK

Streptococcus = experiment: Group A Streptococcus viability loss, dose response, counter-screen for streptokinase expression inhibitor project, luminescence, BacTiterGlo (AID 1915); type: functional, organism-based;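 further: potency for reduction of bacterial viability or growth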
Fatty acid synthase [11] = biological target: T4, Fatty acid synthase (Homo sapiens, UniProt P49327); experiment: FAS thioesterase domain inhibitors, dose response, biochemical, kinetic fluorescence intensity (AID 624326); type: functional;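 further: rate of fluorescence rise from hydrolysis of a fluorogenic O-methyl fluorescein ester substrate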
Fatty acid synthase [12] = biological target: T4, Fatty acid synthase; experiment: FAS thioesterase domain inhibitors, dose response, biochemical, endpoint fluorescence intensity, uHTS hits (AID 624327); type: functional;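 further: fluorescence from hydrolysis of an O-methyl fluorescein acyl ester substrate by the enzyme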
[13] = Luminescence Cell-Based Dose Confirmation HTS to Identify Inhibitors of Platelet Dense Granule Release. [Related pubchem assays: 1663 (Primary HTS), 1678 (Summary of Project)]; type: functional
Genome polyprotein = Genome polyprotein (dengue virus type 2, UniProt P29990); experiment: Dengue-2 NS5 methyltransferase inhibitors, primary screen, biochemical, confirmation dose response (AID 588689); type: functional
[14] = biological target: Luciferin 4-monooxygenase (Photinus pyralis, UniProt P08659); experiment: firefly luciferase enzyme inhibitors, dose response, biochemical, luminescence (AID 1891)
Protein RecA = biological target: T5, Protein RecA (Mycobacterium tuberculosis, UniProt P9WHJ3); experiment: Fluorescence Cell-Free Homogeneous Dose Retest to Identify Inhibitors of RecA-Intein Splicing Activity. [Related pubchem assays (depositor defined):AID2097, AID2223, AID489010, AID492950]; type: functional
T5 sequence (P9WHJ3 whole entry): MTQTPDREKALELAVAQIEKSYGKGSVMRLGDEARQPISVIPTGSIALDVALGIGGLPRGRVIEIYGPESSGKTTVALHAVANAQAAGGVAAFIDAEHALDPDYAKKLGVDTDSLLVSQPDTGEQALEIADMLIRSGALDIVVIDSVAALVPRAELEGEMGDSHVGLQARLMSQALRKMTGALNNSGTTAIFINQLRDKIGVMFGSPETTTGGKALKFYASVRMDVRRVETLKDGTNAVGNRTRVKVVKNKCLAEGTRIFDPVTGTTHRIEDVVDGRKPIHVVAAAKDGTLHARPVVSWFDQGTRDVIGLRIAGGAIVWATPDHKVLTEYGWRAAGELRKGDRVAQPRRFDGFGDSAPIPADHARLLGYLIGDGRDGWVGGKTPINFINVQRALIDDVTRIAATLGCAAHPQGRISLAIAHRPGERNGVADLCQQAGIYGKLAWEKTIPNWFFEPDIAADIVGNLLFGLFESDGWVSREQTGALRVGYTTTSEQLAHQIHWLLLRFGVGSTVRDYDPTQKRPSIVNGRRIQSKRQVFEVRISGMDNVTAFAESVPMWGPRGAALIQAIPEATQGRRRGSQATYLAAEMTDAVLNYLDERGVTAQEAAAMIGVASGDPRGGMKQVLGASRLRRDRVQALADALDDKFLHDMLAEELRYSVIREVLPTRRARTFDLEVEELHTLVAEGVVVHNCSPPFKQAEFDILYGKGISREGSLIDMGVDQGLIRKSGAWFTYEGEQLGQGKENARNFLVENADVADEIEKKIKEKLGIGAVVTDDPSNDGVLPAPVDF

[15] = biological target: T6, Replicative DNA helicase DnaB (Mycobacterium tuberculosis, UniProt P9WMR3); experiment: DnaB intein splicing inhibitors, dose response, biochemical, cell-free fluorescence (AID 449749); type: functional
T6 sequence (P9WMR3 whole entry): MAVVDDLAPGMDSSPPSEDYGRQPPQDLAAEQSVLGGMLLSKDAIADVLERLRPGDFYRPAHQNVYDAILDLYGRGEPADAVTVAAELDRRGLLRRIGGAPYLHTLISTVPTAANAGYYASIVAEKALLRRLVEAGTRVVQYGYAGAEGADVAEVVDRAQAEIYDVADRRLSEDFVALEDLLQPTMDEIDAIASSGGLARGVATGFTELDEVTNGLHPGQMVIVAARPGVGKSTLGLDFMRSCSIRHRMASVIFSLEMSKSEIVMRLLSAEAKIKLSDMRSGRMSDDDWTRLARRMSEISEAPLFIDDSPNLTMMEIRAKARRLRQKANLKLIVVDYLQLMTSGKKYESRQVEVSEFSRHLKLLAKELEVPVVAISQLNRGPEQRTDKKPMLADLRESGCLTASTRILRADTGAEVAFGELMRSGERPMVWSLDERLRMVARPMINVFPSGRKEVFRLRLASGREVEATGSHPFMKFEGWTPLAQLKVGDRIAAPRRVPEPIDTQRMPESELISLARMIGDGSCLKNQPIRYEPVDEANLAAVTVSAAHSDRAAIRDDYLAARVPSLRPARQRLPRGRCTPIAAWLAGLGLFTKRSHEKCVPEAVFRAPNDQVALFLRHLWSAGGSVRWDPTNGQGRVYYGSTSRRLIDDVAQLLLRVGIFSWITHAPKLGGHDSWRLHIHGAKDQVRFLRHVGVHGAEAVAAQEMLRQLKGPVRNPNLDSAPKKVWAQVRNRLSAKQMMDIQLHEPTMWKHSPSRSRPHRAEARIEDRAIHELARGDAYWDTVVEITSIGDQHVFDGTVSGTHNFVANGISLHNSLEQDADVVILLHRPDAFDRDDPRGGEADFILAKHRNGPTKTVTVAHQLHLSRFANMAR

[16] = THP-1 cell cytotoxicity, dose response, cytotoxicity control for non-replicating M. tuberculosis project (AID 489025); type: functional

Cytochrome P450 3A4, sequence (P08684 whole entry): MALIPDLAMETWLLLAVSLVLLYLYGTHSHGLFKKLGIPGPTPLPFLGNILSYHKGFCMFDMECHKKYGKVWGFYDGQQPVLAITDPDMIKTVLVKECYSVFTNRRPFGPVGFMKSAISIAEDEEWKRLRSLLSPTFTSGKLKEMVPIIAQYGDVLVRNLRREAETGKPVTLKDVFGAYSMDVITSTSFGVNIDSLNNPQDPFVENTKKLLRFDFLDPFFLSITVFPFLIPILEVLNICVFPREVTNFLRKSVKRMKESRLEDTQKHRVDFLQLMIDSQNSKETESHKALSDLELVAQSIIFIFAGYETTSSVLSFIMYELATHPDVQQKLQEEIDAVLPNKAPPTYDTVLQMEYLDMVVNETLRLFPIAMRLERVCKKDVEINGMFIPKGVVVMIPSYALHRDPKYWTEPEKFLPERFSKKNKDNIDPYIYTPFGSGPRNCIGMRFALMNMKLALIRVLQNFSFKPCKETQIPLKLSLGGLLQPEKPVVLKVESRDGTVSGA
G-protein coupled receptor 55, sequence (Q9Y2T6 whole entry): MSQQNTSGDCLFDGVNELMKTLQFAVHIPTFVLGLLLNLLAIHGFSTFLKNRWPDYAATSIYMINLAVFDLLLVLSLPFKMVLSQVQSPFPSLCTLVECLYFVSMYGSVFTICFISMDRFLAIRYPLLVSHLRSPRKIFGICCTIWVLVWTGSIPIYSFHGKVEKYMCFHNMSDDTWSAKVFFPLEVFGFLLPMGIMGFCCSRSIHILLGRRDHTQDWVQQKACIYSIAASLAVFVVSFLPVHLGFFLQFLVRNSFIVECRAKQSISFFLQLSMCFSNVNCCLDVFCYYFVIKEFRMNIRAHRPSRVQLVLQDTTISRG
T4 sequence (P49327 whole entry, the tested form may be a part): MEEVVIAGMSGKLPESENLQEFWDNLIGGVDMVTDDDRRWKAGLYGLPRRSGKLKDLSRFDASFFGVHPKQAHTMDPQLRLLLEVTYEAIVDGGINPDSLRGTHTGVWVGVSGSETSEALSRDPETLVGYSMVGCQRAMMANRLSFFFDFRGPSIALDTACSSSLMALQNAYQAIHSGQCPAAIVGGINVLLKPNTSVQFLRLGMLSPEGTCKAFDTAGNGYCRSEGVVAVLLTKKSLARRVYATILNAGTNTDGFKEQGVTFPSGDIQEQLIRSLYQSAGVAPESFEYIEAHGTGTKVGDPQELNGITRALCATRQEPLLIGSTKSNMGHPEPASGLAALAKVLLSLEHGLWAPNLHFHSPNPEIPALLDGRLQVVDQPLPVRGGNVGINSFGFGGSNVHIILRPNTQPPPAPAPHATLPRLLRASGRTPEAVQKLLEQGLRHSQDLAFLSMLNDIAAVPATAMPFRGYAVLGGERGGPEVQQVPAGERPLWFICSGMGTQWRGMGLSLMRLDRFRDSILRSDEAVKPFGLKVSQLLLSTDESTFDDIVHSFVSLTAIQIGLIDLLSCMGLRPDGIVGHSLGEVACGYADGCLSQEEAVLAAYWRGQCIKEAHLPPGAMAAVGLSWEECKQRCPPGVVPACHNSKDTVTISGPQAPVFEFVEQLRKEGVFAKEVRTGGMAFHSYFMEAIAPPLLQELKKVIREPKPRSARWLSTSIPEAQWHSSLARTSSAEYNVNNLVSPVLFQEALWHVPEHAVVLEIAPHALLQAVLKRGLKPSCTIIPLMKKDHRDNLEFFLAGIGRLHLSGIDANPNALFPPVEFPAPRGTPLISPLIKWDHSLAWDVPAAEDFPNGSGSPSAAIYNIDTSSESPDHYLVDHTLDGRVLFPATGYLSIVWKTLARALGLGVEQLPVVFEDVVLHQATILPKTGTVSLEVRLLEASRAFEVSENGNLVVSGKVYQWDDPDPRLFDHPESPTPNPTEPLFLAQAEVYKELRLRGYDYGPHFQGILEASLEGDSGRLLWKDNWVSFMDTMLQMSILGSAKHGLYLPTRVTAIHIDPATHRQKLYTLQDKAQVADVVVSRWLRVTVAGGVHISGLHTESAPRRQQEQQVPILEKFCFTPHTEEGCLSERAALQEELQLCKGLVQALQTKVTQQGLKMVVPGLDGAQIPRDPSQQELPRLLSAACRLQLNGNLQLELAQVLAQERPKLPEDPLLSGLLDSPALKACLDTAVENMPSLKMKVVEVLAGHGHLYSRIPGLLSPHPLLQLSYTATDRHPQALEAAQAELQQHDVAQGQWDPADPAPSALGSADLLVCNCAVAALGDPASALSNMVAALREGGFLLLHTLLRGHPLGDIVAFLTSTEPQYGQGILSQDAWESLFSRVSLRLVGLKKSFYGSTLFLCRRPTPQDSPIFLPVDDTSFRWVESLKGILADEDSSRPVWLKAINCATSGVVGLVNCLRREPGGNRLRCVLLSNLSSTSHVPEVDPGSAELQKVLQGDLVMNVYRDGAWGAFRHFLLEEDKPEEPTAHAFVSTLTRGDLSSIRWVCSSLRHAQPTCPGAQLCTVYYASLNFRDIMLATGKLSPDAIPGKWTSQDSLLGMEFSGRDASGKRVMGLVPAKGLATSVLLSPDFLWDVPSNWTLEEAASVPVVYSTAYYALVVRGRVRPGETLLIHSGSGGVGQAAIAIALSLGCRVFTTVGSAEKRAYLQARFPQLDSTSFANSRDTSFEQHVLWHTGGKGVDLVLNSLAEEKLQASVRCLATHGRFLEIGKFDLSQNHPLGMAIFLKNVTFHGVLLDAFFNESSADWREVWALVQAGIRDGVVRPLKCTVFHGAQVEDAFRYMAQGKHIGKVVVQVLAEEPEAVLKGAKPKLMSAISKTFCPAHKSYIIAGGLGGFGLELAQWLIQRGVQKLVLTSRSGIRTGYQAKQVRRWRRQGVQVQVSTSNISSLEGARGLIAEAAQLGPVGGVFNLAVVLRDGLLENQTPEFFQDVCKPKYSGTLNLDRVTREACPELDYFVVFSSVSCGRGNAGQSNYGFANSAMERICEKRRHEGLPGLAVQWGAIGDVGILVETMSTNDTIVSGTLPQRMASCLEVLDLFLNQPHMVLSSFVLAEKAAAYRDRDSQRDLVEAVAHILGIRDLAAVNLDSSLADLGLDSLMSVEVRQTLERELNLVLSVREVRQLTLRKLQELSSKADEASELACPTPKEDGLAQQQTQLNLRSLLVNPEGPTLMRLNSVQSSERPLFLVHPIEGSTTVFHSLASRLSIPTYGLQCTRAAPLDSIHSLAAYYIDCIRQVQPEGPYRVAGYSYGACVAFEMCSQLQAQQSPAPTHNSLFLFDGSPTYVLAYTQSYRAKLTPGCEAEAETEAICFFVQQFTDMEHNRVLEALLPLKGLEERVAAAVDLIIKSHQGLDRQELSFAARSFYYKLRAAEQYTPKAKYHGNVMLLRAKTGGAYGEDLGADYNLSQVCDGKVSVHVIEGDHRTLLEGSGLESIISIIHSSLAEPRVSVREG
Genome polyprotein, sequence (P29990 2492-3391 limits assumed): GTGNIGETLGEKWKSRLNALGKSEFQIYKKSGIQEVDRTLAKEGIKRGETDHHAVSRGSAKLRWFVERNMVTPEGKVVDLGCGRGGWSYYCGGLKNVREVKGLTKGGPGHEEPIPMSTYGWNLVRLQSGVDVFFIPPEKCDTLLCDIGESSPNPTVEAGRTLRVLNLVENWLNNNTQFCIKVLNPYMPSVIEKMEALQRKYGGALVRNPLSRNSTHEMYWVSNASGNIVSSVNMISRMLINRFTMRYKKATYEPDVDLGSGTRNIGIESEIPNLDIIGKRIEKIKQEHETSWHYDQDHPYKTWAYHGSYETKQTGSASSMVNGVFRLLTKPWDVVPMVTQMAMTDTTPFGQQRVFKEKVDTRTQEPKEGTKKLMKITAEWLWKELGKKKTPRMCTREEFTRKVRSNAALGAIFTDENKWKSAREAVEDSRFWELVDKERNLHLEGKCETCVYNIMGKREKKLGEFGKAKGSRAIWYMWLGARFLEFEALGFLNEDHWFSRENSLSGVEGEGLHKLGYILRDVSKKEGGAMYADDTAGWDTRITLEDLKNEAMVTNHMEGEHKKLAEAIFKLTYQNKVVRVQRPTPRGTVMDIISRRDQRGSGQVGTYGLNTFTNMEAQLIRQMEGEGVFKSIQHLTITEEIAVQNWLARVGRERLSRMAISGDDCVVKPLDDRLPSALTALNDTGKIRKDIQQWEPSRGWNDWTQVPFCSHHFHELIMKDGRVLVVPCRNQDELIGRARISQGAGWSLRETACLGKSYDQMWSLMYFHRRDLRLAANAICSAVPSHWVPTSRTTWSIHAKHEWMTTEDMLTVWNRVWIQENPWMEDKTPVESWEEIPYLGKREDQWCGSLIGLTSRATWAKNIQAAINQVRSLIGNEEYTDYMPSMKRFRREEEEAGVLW
Luciferin 4-monooxygenase, sequence (P08659 whole entry): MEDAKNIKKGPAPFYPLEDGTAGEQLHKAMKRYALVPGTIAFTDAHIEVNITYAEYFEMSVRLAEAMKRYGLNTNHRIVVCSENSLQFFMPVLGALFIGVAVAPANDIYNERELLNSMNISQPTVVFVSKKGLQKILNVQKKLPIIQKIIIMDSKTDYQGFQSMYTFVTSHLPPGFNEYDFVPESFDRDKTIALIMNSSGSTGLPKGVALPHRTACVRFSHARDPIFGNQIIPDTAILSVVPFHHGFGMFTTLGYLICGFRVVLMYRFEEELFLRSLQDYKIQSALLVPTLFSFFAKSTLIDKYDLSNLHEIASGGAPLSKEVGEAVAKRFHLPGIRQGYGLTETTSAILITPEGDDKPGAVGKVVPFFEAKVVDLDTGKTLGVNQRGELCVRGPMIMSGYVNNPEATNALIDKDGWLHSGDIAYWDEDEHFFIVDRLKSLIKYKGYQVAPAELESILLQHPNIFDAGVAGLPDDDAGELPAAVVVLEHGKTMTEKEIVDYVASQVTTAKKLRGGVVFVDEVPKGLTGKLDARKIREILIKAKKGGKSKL

In the case of `CCCn1c(-c2ccc(F)cc2)nc2c(N(C)CCN(C)C)nc(C)nc21`, the AC50 (Cytochrome P450 3A4) is reported as 25.1 µM (inconclusive).

With `CCOC(=O)C(C)(C)N(Cc1ccc(C)cc1)S(=O)(=O)c1ccc(Cl)c([N+](=O)[O-])c1` the EC50 [1] was 15.3 µM (active), the EC50 [2] was 17.7 µM (active) and the EC50 [3] was 20.1 µM (active). The IC50 [4] was 3.61 µM (active), the EC50 [5] was > 53 µM (inactive) and the IC50 [6] was > 47.1 µM (inactive).

With `COc1c(O)cc2c(-c3ccccc3)cc(=O)oc2c1OC` [KUHLMANNIN] the AC50 (Cytochrome P450 3A4) was 31.6 µM (inconclusive).

With `COc1ccc(CNCc2cc3c(C(C)(C)C)nn(-c4ccccc4)c3[nH]c2=O)cc1` the IC50 [4] was 2.18 µM (active).

In the case of `COC(=O)[C@@]1(C)C[C@@H]1[C@@H](NC(=O)[C@@]1(C)C[C@@H]1[C@@H](NC(=O)[C@@]1(C)C[C@@H]1[C@@H](NC(=O)[C@@]1(C)C[C@@H]1[C@@H](NC(=O)OCc1ccccc1)c1ccccc1)c1ccccc1)c1ccccc1)c1ccccc1`, the AC50 (Cytochrome P450 3A4) is reported as 0.2 µM (inconclusive).

For `CC1(C)C2(Cl)C(Cl)C(Cl)C(Cl)(C(Cl)Cl)C1(Cl)C2Cl` (stereo unspecified) [STROBANE], the AC50 (Cytochrome P450 3A4) was 15.8 µM (inconclusive).

For `CCCCC(CC)COCCCN` (stereo unspecified), the AC50 (Cytochrome P450 3A4) was 31.6 µM (inconclusive).

In the case of `COC(=O)c1ccc(CN2[C@H](C(=O)OC)C[C@@]3(O)[C@H](O)[C@H](O)[C@H](O)C[C@@H]23)cc1`, the AC50 (Cytochrome P450 3A4) is reported as 12.6 µM (inconclusive).

For `N=C(NOC(=O)Cc1cccs1)c1ccccc1`, the EC50 (cells [7]) was > 350 µM (not active), the EC50 (H4) was 9.96 µM (active) and the EC50 (cells [8]) was 20.7 µM (active). The EC50 [9] was 3.81 µM (active) and the EC50 [10] was 11.1 µM (active).

In the case of `COC(=O)c1c(NC(NC(=O)C(C)(C)C)C(Cl)(Cl)Cl)sc2c1CCC2` (stereo unspecified), the EC50 (Streptokinase A) is reported as 2.8 µM (active), the IC50 [4] is reported as 2.01 µM (active) and the EC50 (Streptococcus) is reported as 20.3 µM (active).

In the case of `Cc1cc(S(=O)(=O)ON2C(=O)c3ccccc3C2=O)ccc1F`, the IC50 (Fatty acid synthase [11]) is reported as 2.07 µM (active), the EC50 (cells [7]) is reported as > 350 µM (not active) and the IC50 (Fatty acid synthase [12]) is reported as 2.43 µM (active). For the same compound, the EC50 (cells [8]) was > 350 µM (not active), the EC50 [13] was > 112 µM (not active) and the IC50 (Genome polyprotein) was > 100 µM (active). The EC50 [14] was > 112 µM (not active).

With `O=S(=O)(Nc1ccc(O)c2ccccc12)c1ccc(F)cc1` the EC50 (Protein RecA) was 0.0466 µM (active), the AC50 [15] was 0.214 µM (active) and the CC50 [16] was > 40 µM (active).
